Laboratory results from PubChem BioAssay (NCI).
“And” between values parts separate entries of the source, which are not always exact repeats. Identical values can stand only once.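 48-hour exposure; five concentrations; linearly interpolated endpoints. The concentration for 50% growth inhibition is given as GI50. TGI is the concentration that stops growth completely.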

Each compound was assayed on SK-MEL-2 melanoma (assay: inhibition of tumour cell growth, NCI panel, 48 h).

| SMILES | GI50 | TGI |
| --- | --- | --- |
| O=C1CCCCN1CCCCC#Cc1ccccc1C#Cc1ccc([N+](=O)[O-])cc1 | 3.65 µM | 16.7 µM |
| CCOc1cc2c(Cl)ncnc2c(OCC)c1OCC | 3.61 µM | 10.3 µM |
| Oc1ccc2ccccc2c1N=Nc1nccs1 | 3.09 µM | 34.5 µM |
| CC(=O)OCCN1c2ccccc2Sc2cnccc21 |  | > 10 µM |
| Cn1c(=O)c2[nH]c(SCc3ccccn3)nc2n(C)c1=S |  | > 100 µM |
| COc1cc2c(c(O)c1Br)C(=O)c1c(O)cc(C[C@H](C)O)cc1[C@H]2[C@H]1c2cc(C[C@H](C)O)cc(O)c2C(=O)c2c1cc(OC)c(Br)c2O | 6.37 µM and 18.1 µM | 19.6 µM and 44 µM |
| COc1ccc(-c2cc(=O)c3ccc(O)cc3o2)cc1OC |  | > 100 µM |
| CCC(C)c1c(Cl)nc(Cl)nc1Cl (centres undefined) |  | > 100 µM |
| Oc1ccc(CN2CCC(N3CCCCC3)CC2)c2cccnc12 | 27.9 µM | > 100 µM |
| COc1ccc(-c2cc(=O)c3c(OC)c(OC)c(OC)cc3o2)cc1 |  | 56 µM |

Each compound was assayed on KM12 colon (assay: inhibition of tumour cell growth, NCI panel, 48 h).

| SMILES | GI50 | TGI |
| --- | --- | --- |
| CN1CCN(C(=O)OCc2nc3c(N4CCOCC4)nc(Cl)nc3n2C)CC1 | 2.05 µM | 6.08 µM |
| COC(=O)[C@]12CC[C@@H](C)[C@H](C)[C@@H]1C1=CC[C@@H]3[C@@]4(C)C/C(=N\O)[C@H](O)[C@@]5(C)COC(=C45)C[C@@]3(C)[C@]1(C)CC2 | 5.77 µM | 20.2 µM |
| Oc1c(CN2CCC(N3CCCCC3)CC2)cc(Cc2cc(CN3CCC(N4CCCCC4)CC3)c(O)c3ncccc23)c2cccnc12 | 0.677 µM | 14.6 µM |
| Cn1c2ccccc2c2c(-c3ccccc3)[n+]3ccncc3nc21 | 74.9 µM | > 100 µM |
| C[C@@H]1OC(O)[C@@H](F)[C@H](O)[C@@H]1O (some centres undefined) | > 100 µM | > 100 µM |
| NC(=O)c1ccc(I)c(N)c1 | > 100 µM | > 100 µM |
| O=C(/C(Br)=C/c1ccccc1)c1ccccc1 | 7.54 µM | 21.4 µM |
| C=C1C(=O)O[C@H]2[C@H]1CC/C(Cn1cc(-c3ccc(OC)cc3)nn1)=C\CC[C@@]1(C)O[C@@H]21 | 3.51 µM | 14.2 µM |
| O=C1CCCCN1CCCCC#Cc1ccccc1C#Cc1ccc([N+](=O)[O-])cc1 | 3.78 µM | 15.7 µM |
| CCOc1cc2c(Cl)ncnc2c(OCC)c1OCC | 4.96 µM | 16.4 µM |
| Oc1ccc2ccccc2c1N=Nc1nccs1 | 0.629 µM | 19.9 µM |
| CC(=O)OCCN1c2ccccc2Sc2cnccc21 |  | > 10 µM |
| Cn1c(=O)c2[nH]c(SCc3ccccn3)nc2n(C)c1=S |  | > 100 µM |
| COc1cc2c(c(O)c1Br)C(=O)c1c(O)cc(C[C@H](C)O)cc1[C@H]2[C@H]1c2cc(C[C@H](C)O)cc(O)c2C(=O)c2c1cc(OC)c(Br)c2O | 5.96 µM and 26.4 µM | 37.9 µM and 82.4 µM |
| COc1ccc(-c2cc(=O)c3ccc(O)cc3o2)cc1OC |  | > 100 µM |
| FC(F)(F)c1cccc(Nc2nccc(-c3cnn4nc(-c5ccccc5)ccc34)n2)c1 | 6.46 µM | > 19.6 µM |
| CCC(C)c1c(Cl)nc(Cl)nc1Cl (centres undefined) |  | 10.6 µM |
| Oc1ccc(CN2CCC(N3CCCCC3)CC2)c2cccnc12 | 30.3 µM | > 100 µM |
| CS(=O)(=O)c1ccc([C@H]2O[C@@H](CO)C[C@]2(O)c2ccc(S(C)(=O)=O)cc2)cc1 | > 100 µM | > 100 µM |

The compounds below were run on MALME-3M melanoma (assay: inhibition of tumour cell growth, NCI panel, 48 h).

| SMILES | GI50 | TGI |
| --- | --- | --- |
| CN1CCN(C(=O)OCc2nc3c(N4CCOCC4)nc(Cl)nc3n2C)CC1 | 1.5 µM | 2.87 µM |
| COC(=O)[C@]12CC[C@@H](C)[C@H](C)[C@@H]1C1=CC[C@@H]3[C@@]4(C)C/C(=N\O)[C@H](O)[C@@]5(C)COC(=C45)C[C@@]3(C)[C@]1(C)CC2 | 15.9 µM | 34.2 µM |
| Oc1c(CN2CCC(N3CCCCC3)CC2)cc(Cc2cc(CN3CCC(N4CCCCC4)CC3)c(O)c3ncccc23)c2cccnc12 | 1.79 µM | 4.26 µM |
| Cn1c2ccccc2c2c(-c3ccccc3)[n+]3ccncc3nc21 | 93.8 µM | > 100 µM |
| C[C@@H]1OC(O)[C@@H](F)[C@H](O)[C@@H]1O (some centres undefined) | > 100 µM | > 100 µM |
| NC(=O)c1ccc(I)c(N)c1 | > 100 µM | > 100 µM |
| O=C(/C(Br)=C/c1ccccc1)c1ccccc1 | 1.75 µM | 3.9 µM |
| C=C1C(=O)O[C@H]2[C@H]1CC/C(Cn1cc(-c3ccc(OC)cc3)nn1)=C\CC[C@@]1(C)O[C@@H]21 | 1.67 µM | 3.4 µM |
| O=C1CCCCN1CCCCC#Cc1ccccc1C#Cc1ccc([N+](=O)[O-])cc1 | 37.2 µM | > 100 µM |
| CCOc1cc2c(Cl)ncnc2c(OCC)c1OCC | 9.5 µM | 27.5 µM |
| Oc1ccc2ccccc2c1N=Nc1nccs1 | 2.41 µM | 15.4 µM |
| CC(=O)OCCN1c2ccccc2Sc2cnccc21 |  | > 10 µM |
| Cn1c(=O)c2[nH]c(SCc3ccccn3)nc2n(C)c1=S |  | > 100 µM |
| COc1cc2c(c(O)c1Br)C(=O)c1c(O)cc(C[C@H](C)O)cc1[C@H]2[C@H]1c2cc(C[C@H](C)O)cc(O)c2C(=O)c2c1cc(OC)c(Br)c2O | 6.65 µM and 12.8 µM | 17 µM and 26.1 µM |
| COc1ccc(-c2cc(=O)c3ccc(O)cc3o2)cc1OC |  | > 100 µM |
| FC(F)(F)c1cccc(Nc2nccc(-c3cnn4nc(-c5ccccc5)ccc34)n2)c1 | 7.23 µM | 14.1 µM |
| CCC(C)c1c(Cl)nc(Cl)nc1Cl (centres undefined) |  | > 100 µM |
| Oc1ccc(CN2CCC(N3CCCCC3)CC2)c2cccnc12 | 24.4 µM | > 100 µM |
| CS(=O)(=O)c1ccc([C@H]2O[C@@H](CO)C[C@]2(O)c2ccc(S(C)(=O)=O)cc2)cc1 | > 100 µM | > 100 µM |
| COc1ccc(-c2cc(=O)c3c(OC)c(OC)c(OC)cc3o2)cc1 |  | > 100 µM |
